For series [1], the system named is Rattus norvegicus. As to conditions: for LC50 / LD50: acute.
In series [2] the test system is Gallus sp. As to conditions: White Leghorn.
Series [3] deals with Oryctolagus sp. As to conditions: dermal; for LD50: acute.
In series [4] the test system is Canidae. As to conditions: chronic; duration: 4 months; oral; Beagle.
Series [5] deals with Mus musculus. As to conditions: acute.
Series [6] deals with Rattus norvegicus. Briefly: LC0; higher = less toxic. As to conditions: acute; inhalation.
Series [7] has as its system Rattus norvegicus. The series can be described thus: LD0; higher = less toxic. As to conditions: acute, oral, gavage.
Series [8] relates to Rattus norvegicus. Conditions: subchronic; oral; M/F; hepatic lesions.
Series [9] deals with Mus musculus. Conditions: subchronic; oral; M/F; hepatic lesions.
Series [10] deals with Rattus norvegicus. As to conditions: subchronic; duration: 13 weeks; oral; gavage; M/F; Fischer 344; Deaths + Body Weight Changes: decrease + Absolute Organ Weight: Right kidney increase, Liver increase, Thymus decrease + Relative Organ ….
The test system of series [11] is Mus musculus. As to conditions: subchronic; duration: 13 weeks; oral; gavage; Liver: Lesions.
Series [12] has as its system Cavia porcellus. As to conditions: acute; Inhalation; Guinea Pig.
Series [13] concerns Cavia sp. Conditions: acute; Inhalation; Harley.
The subject of series [14] is Canidae. Conditions: chronic; duration: 9 years; oral; capsule; F; Beagle; hepatic.
The test system of series [15] is Mus musculus. The series can be described thus: LD0; higher = less toxic. Conditions: acute; oral.
Series [16] concerns Canidae. Conditions: chronic; duration: 9 years; oral; capsule; F; Beagle; hepatic. The source holds these as a separate data set.
Series [17] deals with Monkey. Conditions: developmental; oral; M/F; reduced birth weight.
In series [18] the test system is Neovison sp. As to conditions: repeat dose other; oral; Mink.
The mark [19] stands for this setting: subchronic, duration: 90 days, oral, diet.
Setting [20] is: reproduction developmental, oral, diet, Sprague-Dawley, generation: F0.
Where [21] appears, read: subchronic, duration: 3 months, oral, diet.

Each structure is given as a SMILES string. Values joined by “and” are separate entries in the source; they are usually repeats but may differ in a detail not shown here. Equal entries are not always repeated.

Broadly, the NOAEL is the highest tested level that showed no adverse finding. In turn, `CC(C)(C)c1ccc(OP2OCC3(CO2)COP(Oc2ccc(C(C)(C)C)cc2C(C)(C)C)OC3)c(C(C)(C)C)c1` (stereo not drawn) [Bis(2,4-di-tert-butylphenyl) pentaerythritol diphosphite] gave an LC50 in series [1] (inhalation, Sprague-Dawley) above 2000 mg/m3. For the same compound, the LD50 in series [1] (oral, Sprague-Dawley) was 5580 mg/kg; in series [2] (acute, oral, gavage) it was above 6080 mg/kg; in series [3] (New Zealand) it was above 2000 mg/kg. Besides, the NOAEL in [1] (chronic, duration: 24 months, oral, diet, Wistar) was 39 mg/kg-day; in series [1] (reproduction developmental, duration: 90 days, oral, diet, Crl:CD(SD), generation: F0), 1000 ppm; in series [1] (reproduction developmental, duration: 90 days, oral, diet, M, Crl:CD(SD)), 22 mg/kg-day; in series [4], 12 mg/kg-day.

With `CCCCCCCCCc1ccc(OP(Oc2ccc(CCCCCCCCC)cc2)Oc2ccc(CCCCCCCCC)cc2)cc1` [Nonylphenolphosphite(3:1)], the LD50 in [1] (dermal, semiocclusive, RAI f1) is above 2000 mg/kg; in series [1] (injection, Intraperitoneal, RAI f1), above 1000 mg/kg; in series [5] (oral, gavage), above 10000 mg/kg; in [3] (semiocclusive, New Zealand), above 2000 mg/kg. Also, the no-observed-adverse-effect level (NOAEL) turned out to be 1000 mg/kg-day in [1] (developmental, duration: 4 weeks, oral, gavage, Sprague-Dawley); 3300 ppm in series [1] (reproduction developmental, duration: 2 years, oral, diet, generation: F1); 1000 mg/kg-day in series [1] (reproduction developmental, duration: 4 weeks, oral, gavage, F, Sprague-Dawley); 200 mg/kg-day in series [1] (reproduction developmental, duration: 4 weeks, oral, gavage, M, Sprague-Dawley); 200 mg/kg-day in series [1] (reproduction developmental, duration: 4 weeks, oral, gavage, Sprague-Dawley, generation: F0); 200 mg/kg-day in series [1] (reproduction developmental, duration: 4 weeks, oral, gavage, Sprague-Dawley, generation: F1). In series [2] (developmental, duration: 5 days, injection), this compound yielded a no-observed-adverse-effect level (NOAEL) of 5 mg. Moreover, the “NOAEL (% diet)” value in series [1] (subchronic, duration: 12 weeks, oral, diet) turned out to be 1; in [1] (setting [19]), 1. Further, the “LOAEL (% diet)” value in series [1] (setting [19]) amounted to 5.

`S=C(SN1CCOCC1)N1CCOCC1` [4-((Morpholinothio)thioxomethyl)morpholine] returned an LC0 in series [6] of 164 mg/L. Also, the LD50 was 5110 mg/kg in [1] (oral, gavage); 5000 mg/kg and 5200 mg/kg in [1] (oral, gavage, Sprague-Dawley); 7000 mg/kg and 9000 mg/kg and 11000 mg/kg in series [5] (oral, gavage, CD1); above 10000 mg/kg in [3] (semiocclusive). Moreover, the NOAEL in [1] (reproduction developmental, duration: 12 weeks, oral, diet, Sprague-Dawley, generation: F0) turned out to be 200 ppm; in series [1] (reproduction developmental, duration: 12 weeks, oral, diet, Sprague-Dawley, generation: F1), 600 ppm; in series [1] (setting [20]), 600 ppm. In addition, the LD0 amounted to 1000 mg/kg in series [7] and 2700 mg/kg in [7] (Sprague-Dawley).

As usually defined, the LOAEL is the lowest dose or exposure tested at which an adverse effect was seen. For `c1ccoc1` [Furan], the LOAEL in [8] was determined as 4 mg/kg-day. The NOAEL in [9] came to 2 mg/kg-day; in [11] it was 1.4 mg/kg-day. Moreover, the NOEL in [10] was below 4 mg/kg-day.

Turning to `CCC(C)(CCC(C)C)C(=O)O` (stereo not drawn) [Neodecanoic acid], the LC50 was above 511 mg/m3 in [1] (Inhalation, Wistar); above 3 µg/mL in series [1] (inhalation, Wistar); above 511 mg/m3 in series [5] (Inhalation, Swiss albino); above 3 µg/mL in series [5] (inhalation, Swiss); above 511 mg/m3 in [13]. The LD50 was above 511 mg/m3 in series [1] (Inhalation, Wistar); above 3 mg/L in series [1] (inhalation, Wistar); above 511 mg/m3 in series [5] (Inhalation, Swiss); above 3 mg/L in series [5] (inhalation, Swiss); above 511 mg/m3 in series [12]; above 3160 mg/kg in [3]. Also, the LD50 in series [3] (occlusive) was above 3160 mg/kg; in series [13], above 511 mg/m3. The NOAEL worked out at 1500 ppm in series [1] (setting [20]); 1500 ppm in [1] (reproduction developmental, oral, diet, Sprague-Dawley, generation: F1); 1500 ppm in [1] (reproduction developmental, oral, diet, Sprague-Dawley, generation: F2); 48 mg/kg-day in series [1] (setting [21]); 2280 mg/kg-day in series [3] (repeat dose other, M). In [1] (setting [21]), this compound gave an LOAEL of 144 mg/kg-day.

For the compound `Nc1ccc(Cc2ccc(N)c(Cl)c2)cc1Cl` [4,4'-Methylenebis(2-chloroaniline)], in series [3], the LD50 is above 5000 mg/kg. Further, the LOAEL in [14] is 7.3 mg/kg-day; in series [16] it was 10 mg/kg-day. In series [15], this compound displayed an LD0 of 640 mg/kg.

In series [17], `Clc1cccc(-c2cc(Cl)cc(Cl)c2)c1` [Aroclor 1016] registered an LOAEL of 0.028 mg/kg-day and an NOAEL of 0.007 mg/kg-day. Besides, in [18], the LOAEL is 3.43 mg/kg-day and the NOAEL was 1.37 mg/kg-day.

Source of the values: EPA's ToxValDB 9.5.
